# Legend:
# PGL-3 condensates = target: T1, PGL-3 condensates (Caenorhabditis elegans, UniProt G5EBV6); experiment: Fluorescence imaging of dye partitioning in PGL-3 condensates (I-in, I-out); format: physicochemical; settings: for Ratio of intensity inside:outside PGL-3 Condensates Day 1 / Ratio of intensity inside:outside PGL-3 Condensates Day 2: I-in:I-out; for Ratio of intensity inside:outside PGL-3 Condensates Day 1 / Ratio of intensity inside:outside PGL-3 Condensates Day 2 / Intensity Inside with Dye Average / Intensity Inside with Dye 1 / Intensity Inside with Dye 2 / Intensity Inside with Dye 3 / Intensity Outside with Dye Average / Intensity Outside with Dye 1 / Intensity Outside with Dye 2 / Intensity Outside with Dye 3: 10 μM dye; for Intensity Inside with Dye Average / Intensity Inside with Dye 1 / Intensity Inside with Dye 2 / Intensity Inside with Dye 3 / Intensity Inside Dye-No Dye: inside PGL-3 condensate; for Intensity Inside with Dye Average / Intensity Inside with Dye 1 / Intensity Inside with Dye 2 / Intensity Inside with Dye 3 / Intensity Outside with Dye Average / Intensity Outside with Dye 1 / Intensity Outside with Dye 2 / Intensity Outside with Dye 3: 5 μM protein; for Intensity Inside with Dye Average / Intensity Outside with Dye Average: average of three images; for Intensity Inside with Dye Average / Intensity Inside with Dye 1 / Intensity Inside with Dye 2 / Intensity Inside with Dye 3 / Intensity Inside Dye-No Dye / Intensity Outside with Dye Average / Intensity Outside with Dye 1 / Intensity Outside with Dye 2 / Intensity Outside with Dye 3 / Intensity Outside (Dye-No Dye): one day of experiments; for Intensity Inside with Dye 1 / Intensity Outside with Dye 1: image 1; for Intensity Inside with Dye 2 / Intensity Outside with Dye 2: image 2; for Intensity Inside with Dye 3 / Intensity Outside with Dye 3: image 3; for Intensity Inside Dye-No Dye / Intensity Outside (Dye-No Dye): background corrected; for Intensity Outside with Dye Average / Intensity Outside with Dye 1 / Intensity Outside with Dye 2 / Intensity Outside with Dye 3 / Intensity Outside (Dye-No Dye): outside PGL-3 condensate
# T1 sequence (G5EBV6 1-693): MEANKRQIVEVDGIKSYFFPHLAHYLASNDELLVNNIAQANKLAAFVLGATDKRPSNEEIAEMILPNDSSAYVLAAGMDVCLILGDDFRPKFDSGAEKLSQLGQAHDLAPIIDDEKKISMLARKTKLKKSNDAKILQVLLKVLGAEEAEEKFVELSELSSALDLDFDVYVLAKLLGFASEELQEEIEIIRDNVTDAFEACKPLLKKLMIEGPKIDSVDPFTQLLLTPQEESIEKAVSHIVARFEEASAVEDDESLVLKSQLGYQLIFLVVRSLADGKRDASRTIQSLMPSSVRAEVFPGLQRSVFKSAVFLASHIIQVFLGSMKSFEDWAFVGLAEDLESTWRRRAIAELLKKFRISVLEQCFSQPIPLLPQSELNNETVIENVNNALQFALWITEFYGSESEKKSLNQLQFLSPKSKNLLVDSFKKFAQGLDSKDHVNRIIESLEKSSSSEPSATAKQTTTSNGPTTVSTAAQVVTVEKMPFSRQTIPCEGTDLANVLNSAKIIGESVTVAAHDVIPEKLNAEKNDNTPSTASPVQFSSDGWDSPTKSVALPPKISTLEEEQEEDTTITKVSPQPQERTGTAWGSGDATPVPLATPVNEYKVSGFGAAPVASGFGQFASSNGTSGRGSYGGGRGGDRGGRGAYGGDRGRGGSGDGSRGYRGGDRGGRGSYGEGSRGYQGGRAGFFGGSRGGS
# Description: (§1) All dye-stocks were stored as 1 mM solutions in 100% DMSO. The dyes were dissolved in dilution buffer (DB: 14.7 mM Tris, pH 7.25, 1 mM DTT) to yield 11.765 μM dye in 1.1765 DMSO. 17 μl of dye was distributed in a 384 well non-binding plate (Greiner).
# (§2) Either SNAP-tagged FUS protein or tag-free PGL-3 protein was thawed at room temperature for at least 10 min, and the buffer was exchanged to partitioning buffer (PB: 50 mM Tris pH 7.25, 500 mM KCl, 5% Glycerol, and 1 mM DTT). The protein was then diluted to 33.3 μM in PB. 3 μl of protein solution were added to the 384 well plate to initiate phase separation, yielding 20 μl of 5 μM protein and 10 μM dye in 75 mM KCl, 0.75% Glycerol, 20 mM Tris, 1 mM DTT, and 1% DMSO or for no dye control reactions, 20 μl of 5 μM protein in 75 mM KCl, 0.75% Glycerol, 20 mM Tris, 1 mM DTT.
# (§3) A spinning disk confocal microscope was used to acquire images of the samples. A 60×oil high-NA objective lens was used to capture the condensate droplets. The laser power was set to 20% and the exposure times were adjusted to the fluorescence emission intensity specific for each dye. Exposure times ranged from 1-1000 ms. Appropriate filter settings were used, matching the excitation and emission spectra of the respective dyes. Three images per well were taken. The background signal of protein droplets in the absence of dye was recorded for all applied imaging conditions.
# (§4) Fluorescence intensity was measured inside one exemplary target condensate (Intensity inside, I-in) per image and in a region next to the exemplary target condensate (Intensity outside, I-out) by hand using the image analysis software Fiji. An example depicting the regions measured is shown FIG. 2A. Three I-in and three I-out values were measured in total for each dye in each experiment and were averaged. The measured I-in and I-out values for FUS-SNAP condensates on one day of experiments are shown in Table 2 and Table 3, respectively. The measured I-in and I-out values for PGL-3 condensates on one day of experiments are shown in Table 4 and Table 5, respectively. All values were background corrected, based on the background images (no dye controls) taken with the same microscope conditions.
# (§5) The ratios of the average intensity measured in the target condensates and outside of the target condensates were calculated by dividing I-in by I-out, although dividing I-out by I-in could also have been used. The I-in:I-out ratios determined from the two different days of experiments were then averaged. The average I-in:I-out ratios for FUS-SNAP condensates are shown in FIG. 3 and the average I-in:I-out ratios for PGL-3 condensates are shown in FIG. 4. The standard deviation between the two experiments is represented by the error bars in FIG. 3 and FIG. 4.
# FUS-SNAP condensates = target: T2, FUS-SNAP condensates (Homo sapiens, UniProt P35637); experiment: Fluorescence imaging of dye partitioning in FUS-SNAP condensates (I-in, I-out); format: physicochemical; settings: for Intensity Inside with Dye Average / Intensity Inside with Dye 1 / Intensity Inside with Dye 2 / Intensity Inside with Dye 3 / Intensity Inside Dye-No Dye: inside FUS-SNAP condensate; for Intensity Inside with Dye Average / Intensity Inside with Dye 1 / Intensity Inside with Dye 2 / Intensity Inside with Dye 3 / Intensity Outside with Dye Average / Intensity Outside with Dye 1 / Intensity Outside with Dye 2 / Intensity Outside with Dye 3: 5 μM protein; for Intensity Inside with Dye Average / Intensity Outside with Dye Average: average of three images; for Intensity Inside with Dye Average / Intensity Inside with Dye 1 / Intensity Inside with Dye 2 / Intensity Inside with Dye 3 / Intensity Inside Dye-No Dye / Intensity Outside with Dye Average / Intensity Outside with Dye 1 / Intensity Outside with Dye 2 / Intensity Outside with Dye 3 / Intensity Outside (Dye-No Dye): one day of experiments; for Intensity Inside with Dye 1 / Intensity Outside with Dye 1: image 1; for Intensity Inside with Dye 2 / Intensity Outside with Dye 2: image 2; for Intensity Inside with Dye 3 / Intensity Outside with Dye 3: image 3; for Intensity Inside Dye-No Dye / Intensity Outside (Dye-No Dye): background corrected; for Intensity Outside with Dye Average / Intensity Outside with Dye 1 / Intensity Outside with Dye 2 / Intensity Outside with Dye 3 / Intensity Outside (Dye-No Dye): outside FUS-SNAP condensate
# T2 sequence (P35637 1-526): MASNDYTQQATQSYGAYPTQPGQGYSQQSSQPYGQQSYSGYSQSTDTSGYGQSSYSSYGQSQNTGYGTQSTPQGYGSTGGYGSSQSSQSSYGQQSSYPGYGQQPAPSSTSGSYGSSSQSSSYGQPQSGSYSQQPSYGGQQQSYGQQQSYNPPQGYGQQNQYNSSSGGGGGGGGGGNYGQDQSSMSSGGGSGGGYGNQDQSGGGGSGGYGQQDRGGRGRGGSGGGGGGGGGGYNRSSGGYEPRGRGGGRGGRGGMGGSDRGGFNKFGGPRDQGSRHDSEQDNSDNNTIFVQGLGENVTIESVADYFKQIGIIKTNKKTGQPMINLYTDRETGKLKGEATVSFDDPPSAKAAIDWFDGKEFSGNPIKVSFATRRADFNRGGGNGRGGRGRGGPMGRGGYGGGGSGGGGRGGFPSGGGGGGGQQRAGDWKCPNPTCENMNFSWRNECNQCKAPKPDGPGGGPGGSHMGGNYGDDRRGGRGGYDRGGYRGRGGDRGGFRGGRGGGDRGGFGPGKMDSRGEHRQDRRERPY
# Description: as §1, §2, §3, §4, §5
Structure (SMILES),Ratio of intensity inside:outside PGL-3 Condensates Day 2 (PGL-3 condensates),Intensity Inside with Dye Average (PGL-3 condensates),Intensity Inside with Dye 1 (PGL-3 condensates),Intensity Inside with Dye 2 (PGL-3 condensates),Intensity Inside with Dye 3 (PGL-3 condensates),Intensity Inside Dye-No Dye (PGL-3 condensates),Intensity Outside with Dye Average (PGL-3 condensates),Intensity Outside with Dye 1 (PGL-3 condensates),Intensity Outside with Dye 2 (PGL-3 condensates),Intensity Outside with Dye 3 (PGL-3 condensates),Intensity Outside (Dye-No Dye) (PGL-3 condensates),"Ratio of intensity inside:outside FUS-SNAP Condensates Day 1 (FUS-SNAP condensates; I-in:I-out, 10 μM dye)",Intensity Inside with Dye Average (FUS-SNAP condensates; 10 μM dye),Intensity Inside with Dye 1 (FUS-SNAP condensates; 10 μM dye),Intensity Inside with Dye 2 (FUS-SNAP condensates; 10 μM dye),Intensity Inside with Dye 3 (FUS-SNAP condensates; 10 μM dye),Intensity Inside Dye-No Dye (FUS-SNAP condensates),Intensity Outside with Dye Average (FUS-SNAP condensates; 10 μM dye),Intensity Outside with Dye 1 (FUS-SNAP condensates; 10 μM dye),Intensity Outside with Dye 2 (FUS-SNAP condensates; 10 μM dye),further results
"CC(=O)Oc1ccc2c(c1)Oc1cc(OC(C)=O)ccc1C21OC(=O)c2ccccc21 [Dye 9, Fluorescein diacetate]",−0.4,828.6,824.1,801.2,860.4,231.3,269.2,269.6,264.9,273.2,106.3,1.9,6034.1,5836.4,6036.1,6229.9,1821.5,1485.0,1487.5,1414.8,"Ratio of intensity inside:outside PGL-3 Condensates Day 1 (PGL-3 condensates): 2.2; Ratio of intensity inside:outside FUS-SNAP Condensates Day 2 (FUS-SNAP condensates; I-in:I-out, Day 2, 10 μM dye): 1.5; Ratio of intensity inside:outside FUS-SNAP Condensates Average (FUS-SNAP condensates; I-in:I-out, average of two days, 10 μM dye): 1.7; Intensity Outside with Dye 3 (FUS-SNAP condensates; 10 μM dye): 1552.6; Intensity Outside (Dye-No Dye) (FUS-SNAP condensates): 934.8"
"O=C1OC2(c3ccc(O[C@@H]4O[C@H](CO)[C@H](O)[C@H](O)[C@H]4O)cc3Oc3cc(O[C@@H]4O[C@H](CO)[C@H](O)[C@H](O)[C@H]4O)ccc32)c2ccccc21 [Dye 12, Fluorescein di(β-D-galacto-pyranoside)]",1.9,690.1,689.4,656.9,723.9,92.8,206.4,208.4,203.2,207.7,43.5,−2.3,478.0,456.2,508.6,469.3,−19.5,148.6,150.1,142.8,Ratio of intensity inside:outside PGL-3 Condensates Day 1 (PGL-3 condensates): 2.1; Intensity Outside with Dye 3 (FUS-SNAP condensates; 10 μM dye): 152.9; Intensity Outside (Dye-No Dye) (FUS-SNAP condensates): 8.5
"CC/N=c1/cc2oc3cc(NCC)c(C)cc3c(-c3ccccc3C(=O)NCCOCCOCCN)c-2cc1C.O=C(O)C(F)(F)F [Dye 15, N-(8-Amino-3,6-dioxaoctyl)-rhodamine 6G-amide bis(trifluoroacetate)]",3.3,6487.9,6831.9,6829.0,5802.8,1228.1,1263.8,1289.1,1266.2,1236.3,555.7,70.8,3480.0,3084.2,3756.7,3599.3,−732.6,539.8,559.0,527.6,Intensity Outside with Dye 3 (FUS-SNAP condensates; 10 μM dye): 532.7; Intensity Outside (Dye-No Dye) (FUS-SNAP condensates): −10.3
